Assay results reported in US20010044102A1, “ASSAYS AND REAGENTS FOR IDENTIFYING MODULATORS OF CDC25-MEDIATED MITOTIC ACTIVATION” (priority 1996, published 2001).

Legend:
cdc25 = settings: cited from earlier work
Val 5 cells = assay: Myc-driven apoptosis and DNA replication in MycER cells treated with cdc25A antisense oligonucleotide, scored by TUNEL; type: cell-based; settings: MycER induced by β-estradiol, 0.1% serum, shift from 39 to 32° C., FIG. 5B
Description: Finally, to investigate whether induction of the cdc25A gene is essential for Myc-driven apoptosis, we incubated Val 5 cells after MycER induction by β-estradiol with an antisense cdc25A oligonucleotide. Following this incubation, cells were shifted from 39 to 32° C., activating wild type p53 function, which normally results in apoptosis (Wagner et al. (1994) Genes Dev. 8:2817-2830). A scrambled oligonucleotide with the same nucleotide content was used in control experiments. We observed that both apoptosis and DNA replication was inhibited by the treatment with the antisense, but not with scrambled (control) oligonucleotides (FIG. 5B).
Human cdc25A, B and C under control of CMV promoter and pCMV CD20 has been described (Galaktionov et al. (1995) Science 269:1575-1577). […] Apoptotic figures were scored 24 hours later upon microscopic investigation of the cultures based on CD20 staining, indicative of successful transfection (more than 2%, usually 8-10%), and visible morphological changes indicative of cell death (membrane blebbing, chromatin condensation, etc.). […] 48 hours after shifting to 0.1% serum, MycER fusion protein was induced by the addition of β-estradiol and cell incubation continued for another 24 hours, at which point cells were photographed and apoptosis was scored by TUNEL.

Compound | cdc25 inhibitor (previously described in the literature) (cdc25) | DNA replication (Val 5 cells)
CN1C2CC3C1C1C(C4=C(C(=O)C(N)=CC4=O)C(CO)N1C2O)N1CCOC31 (stereo not drawn) [dnacin B1] | cdc25 inhibitors | –
CN1C2CC3C1C1C(C4=C(C(=O)C(N)=CC4=O)C(CO)N1C2C#N)N1CCOC31 (stereo not drawn) [dnacin A1] | cdc25 inhibitors | –
scrambled oligonucleotide: scrambled oligonucleotide (GGTACCTTGACCCGGGCTCG) with the same nucleotide content, used as control (chemistry not given here) | – | not
